This is an account of results in patent US5567605A, “Assay for D-allose using a NAD cofactor coupled D-allose dehydrogenase” (UOP, priority 1994, dated 1996).

Molecules are shown by their SMILES. “And” between values parts separate entries of the source, which are not always exact repeats. Equal values may be shown once.

Data set [1] deals with D-allose dehydrogenase. As to the kind of experiment: Visual qualitative D-allose assay with electron accepting dyes. In kind it is biochemical, Exophiala pisciphila. Conditions: phenozine methosulfate and nitro blue tetrazolium, phosphate buffer pH 8.0. An excerpt:
The assay can be coupled with electron accepting dyes to form a visual qualitative D-allose assay. […] Control samples without D-allose remain light pink. The nature of the electron-accepting dye is not critical to the success of this qualitative assay; electron-accepting dyes are well known in the biochemical arts and are merely exemplified by the class of tetrazolium salts, one of which is nitro blue tetrazolium.
The visual D-allose assay contained: […]

Data set [2] concerns D-allose dehydrogenase. Nature of the data set: NAD cofactor coupled D-allose dehydrogenase spectrophotometric enzyme assay (340 nm). The format is biochemical, Exophiala pisciphila. The settings on record: for Activity (carbohydrate specificity): Sugar 100 mM as substrate, pH 9.0, 30° C., same dose of enzyme extract. The protocol: Soil and water samples were obtained from several sites and incubated with D-allose in a basic salts solution. The bacterial and fungal cultures were grown aerobically at 30° C. in a rotary incubator at 250 rpm. The basic salts growth medium contained: Na2 HPO4, 16 raM; KH2 PO4, 34 mM; (NH4)2 SO4, 15 mM; MgSO4, 1 mM; CaCl2, 0.1 mM; FeSO4, 0.01 mM and D-allose, 10 mM. The pH of the medium was 6.5. After growth in liquid, as determined by an increase in optical density, the cultures were streaked out on solid agar media containing D-allose as the growth substrate. […] After growth on D-allose, the individual cultures were harvested by centrifugation and the cells disrupted using a sonicator. Cell debris was removed by centrifugation and the crude cell extract was assayed for D-allose dehydrogenase enzymatic activity.
The enzyme assay was performed with a Beckman DU70 recording spectrophotometer using 340 nanometer wavelength light with 20 sec. interval readings for a 10 minute time period. Assays were run in 1 ml cuvettes at a constant temperature of 30° C. The instantaneous reaction rate was measured as the change in optical density per minute; activity was calculated at early reaction times when the changes in optical density were linear with time. The rate of enzyme reaction is directly proportional to the appearance of reduced NAD at 340 nm, because the enzyme oxidizes D-allose and transfers two protons from D-allose to NAD. The extinction coefficient of NADH2 (6.23 OD/1 mM solution) was used to convert the change in optical density per minute to micromoles of product. A standard curve of reaction rate versus substrate concentration was used to determine the D-allose concentration in unknown samples (FIG. 1). The Km of an enzyme is the concentration of substrate that gives one half maximal reaction rate and is thus a measure of the affinity of the enzyme for this substrate. The Vmax of an enzyme is the maximum rate of reaction that can be obtained where the substrate concentration is fully saturating the enzyme. […] An internal standard control using a 20 mM addition of D-allose to a duplicate unknown sample was used to determine if the sample interfered with D-allose measurement. If interference was detected, the unknown sample D-allose concentration was corrected for by the percent interference measured in the internal control sample.
The spectrophotometric enzyme reactions were performed in a 1 mL cuvette that contained the following. […]
The results of Table 1 were obtained at 30° C. using a solution containing 100 mM in D-allose.
In this series, a constant amount of enzyme extract was added to D-allose at various concentrations with the results summarized in Table 2.
In these experiments 1 mL of a 100 mM solution of various sugars were treated at pH 9.0 and 30° C. with the same dose of enzyme extract.

For data set [3] the following is noted: animals and humans; cited from earlier work.

On to `O=C[C@H](O)[C@H](O)[C@H](O)[C@H](O)CO` [D-allose], for which the visual color change result with D-allose dehydrogenase [1] is “color change from light pink to dark blue”. The Km in the data set with D-allose dehydrogenase [2] (30° C., pH 9.0 glycine-NaOH, NAD 5 mM, read-out: apparent Km for the enzyme with D-allose as substrate) is 77 mM. Also, the Activity is 2.35 µmol/min/mL in the data set on D-allose dehydrogenase [2] (Buffer 0.2 molar, initial pH 9.0, final pH 8.5, 100 mM D-allose, 30° C.); 2.56 µmol/min/mL in the data set on D-allose dehydrogenase [2] (Buffer 0.5 molar, initial pH 9.0, final pH 8.9, 100 mM D-allose, 30° C.); 2.75 µmol/min/mL in the data set with D-allose dehydrogenase [2] (Buffer 1.0 molar, initial pH 9.0, final pH 9.0, 100 mM D-allose, 30° C.); 3.13 µmol/min/mL in the data set with D-allose dehydrogenase [2] (Buffer 2.0 molar, initial pH 9.0, final pH 9.0, 100 mM D-allose, 30° C.); 0.13 μmole/min/ml of extract in the data set on D-allose dehydrogenase [2] (D-allose 1 mM, constant amount of enzyme extract); 0.80 μmole/min/ml of extract with D-allose dehydrogenase [2] (D-allose 10 mM, constant amount of enzyme extract). Also, the Activity in the data set with D-allose dehydrogenase [2] (D-allose 100 mM, constant amount of enzyme extract) is 3.07 μmole/min/ml of extract; with D-allose dehydrogenase [2] (Enzyme Extract 20 μL, 100 mM D-allose, 30° C.), 0.09 µmol/min; in the data set with D-allose dehydrogenase [2] (Enzyme Extract 50 μL, 100 mM D-allose, 30° C.) it was 0.15 µmol/min; with D-allose dehydrogenase [2] (Enzyme Extract 100 μL, 100 mM D-allose, 30° C.), 0.26 µmol/min; in the data set on D-allose dehydrogenase [2] (pH of assay buffer 8.0, 100 mM D-allose, 30° C.), less than 0.05 µmol/min/mL; in the data set on D-allose dehydrogenase [2] (pH of assay buffer 8.5, 100 mM D-allose, 30° C.), 0.78 µmol/min/mL. The Activity with D-allose dehydrogenase [2] (pH of assay buffer 9.0, 100 mM D-allose, 30° C.) is 2.38 µmol/min/mL and 2.31 µmol/min/mL; in the data set on D-allose dehydrogenase [2] (pH of assay buffer 9.5, 100 mM D-allose, 30° C.) it was 0.10 µmol/min/mL; with D-allose dehydrogenase [2] (pH of assay buffer 10.0, 100 mM D-allose, 30° C.), less than 0.05 µmol/min/mL. For the same compound, the “% Inhibition” value with D-allose dehydrogenase [2] (D-allose 10 mM in 20% human serum) is recorded as 16%. Also, in the data set on D-allose dehydrogenase [2], the “Activity (carbohydrate specificity)” value came out at 2.93 µmol/min/mL. Besides, the excretion entry in data set [3] is listed as “easily excreted”. In addition, the metabolism result in data set [3] is “not readily metabolized”.

Turning to `O=C[C@@H](O)[C@H](O)[C@H](O)[C@H](O)CO` [D-altrose, reference compound], in the data set on D-allose dehydrogenase [2], the “Activity (carbohydrate specificity)” value was less than 0.07 µmol/min/mL.

Take `O=C[C@H](O)[C@@H](O)[C@H](O)[C@H](O)CO` [D-glucose, reference compound]: in the data set with D-allose dehydrogenase [2], the “Activity (carbohydrate specificity)” value is less than 0.07 µmol/min/mL.

For `O=C[C@@H](O)[C@@H](O)[C@H](O)[C@H](O)CO` [D-mannose, reference compound], the “Activity (carbohydrate specificity)” value in the data set with D-allose dehydrogenase [2] was less than 0.07 µmol/min/mL.

Regarding `O=C[C@H](O)[C@H](O)[C@H](O)CO` [D-ribose, reference compound], the “Activity (carbohydrate specificity)” value with D-allose dehydrogenase [2] is less than 0.07 µmol/min/mL.
